Test system: guinea pig trachea [モルモット・気管]
Test: Bronchodilation in vitro (spontaneous tension of tracheal spirals)
Details: Cavia porcellus, Krebs solution, cumulative addition, read-out: IC50 (concentration inhibiting spontaneously generated tension by 50%)

Q: For CCOP(=O)(O)c1ncc(-c2ccc3ccccc3c2)cc1O [実施例1, [5−(2−ナフチル)−3−ヒドロキシ−2−ピリジル]ホスホン酸エチル], which IC50 is on record?
A: 100 µM

— patent JPH07501070A, “3−ピリジノール誘導体およびその医薬的使用” (スミスクライン・ビーチャム・パブリック・リミテッド・カンパニー, priority 1991, dated 1993)
